Molecules are shown by their SMILES.

The target of one assay is T1, RbMDH (Rickettsia bellii, UniProt Q1RIT9).
T1 construct: gene mdh
It counts as biochemical.

For a further assay, the system named is AncMDH2. It counts as biochemical, synthetic construct. The settings on record: 200 uM NADH, 50 mM Tris pH 7.5, 50 mM KCl, 25 C.

T1 sequence (Q1RIT9 whole entry, looked up): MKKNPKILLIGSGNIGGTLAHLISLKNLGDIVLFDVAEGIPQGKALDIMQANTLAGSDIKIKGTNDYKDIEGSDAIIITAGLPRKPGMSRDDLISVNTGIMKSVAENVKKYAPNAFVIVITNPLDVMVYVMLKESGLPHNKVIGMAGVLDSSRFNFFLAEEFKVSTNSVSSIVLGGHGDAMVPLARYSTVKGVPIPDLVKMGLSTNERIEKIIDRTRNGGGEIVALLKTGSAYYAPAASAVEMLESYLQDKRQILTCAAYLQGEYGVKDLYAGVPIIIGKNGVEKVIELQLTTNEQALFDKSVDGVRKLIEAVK

For `O=C(O)CC(=O)C(=O)O` [oxaloacetate], at RbMDH, the KM result was “RbMDH is a representative α-proteobacterial MDH from Rickettsia bellii”. Usually Km stands for the substrate concentration at which the rate is half of its maximum. Consider `CC(=O)C(=O)O` [pyruvate], for which, in the assay with AncMDH2, the Km amounted to 20 mM.

(Values after article PMC4109310, “An atomic-resolution view of neofunctionalization in the evolution of apicomplexan lactate dehydrogenases” (eLife, 2014).)
